# Values quoted from earlier work as cited in patent US8133870B2, “Therapeutic furopyrimidines and thienopyrimidines” (BioCryst Pharmaceuticals, Inc., priority 2004, dated 2012).
# Tested on: HCV
compound,measurement,setting,value
"NC(=O)c1ncn([C@@H]2O[C@H](CO)[C@@H](O)[C@H]2O)n1 [Ribavirin, 1-β-D-ribofuranosyl-1-1,2,4-triazole-3-carboxamide]",toxicity,ribavirin,significant toxicity
same,patients in whom serum amino transferase levels are reduced to normal,"ribavirin alone, patients",40%
same,serum levels of HCV-RNA,"ribavirin alone, patients",does not lower serum levels of HCV-RNA
